# In patent US20160158200A1, “Combinations of Hepatitis C Virus Inhibitors” (priority 2013, published 2016):
# System: HCV genotype-1a variant with glutamine 30 changed to glutamate in the NS5A protein
# Format: cell-based
# Settings: test compound titrated with BMS-790052 fixed at 200 nM; genotype 1a Q30E replicon
# Description: The NS5A synergistic inhibitory effect of test compounds can be determined using various amounts of an NS5A-targeting compound with titration of a second compound of interest. […] In one embodiment, the HCV genotype strain can be genotype 1a containing a change at amino acid 30 of the NS5A protein consisting of glutamine to glutamate. The test compound can be chosen from compounds listed above or from others present in the literature.
row,Compound,Fold-Synergistic 1a (Q30E) [fold]
1,CC(C)(C)C(NC(=O)C1CCCCC1c1ccccc1)c1nc(-c2ccc(-c3ccc(-c4c[nH]c(C(NC(=O)C5CCCCC5c5ccccc5)C(C)(C)C)n4)cc3)cc2)c[nH]1 (mixture of isomers) [Compound S-269],>100
2,CC(C)[C@H](NC(=O)CCCn1ccnc1)c1ncc(-c2ccc(-c3ccc(-c4cnc([C@@H](NC(=O)CCCn5ccnc5)C(C)C)[nH]4)cc3)cc2)[nH]1 [Compound S-58],<10
3,CC(C)(C)[C@H](NC(=O)C1(CF)CCC(F)(F)CC1)c1nc(-c2ccc(-c3ccc(-c4c[nH]c([C@@H](NC(=O)C5(CF)CCC(F)(F)CC5)C(C)(C)C)n4)cc3)cc2)c[nH]1 [Compound P-38],>100
4,CC(C)[C@H](NC(=O)C1CCC(F)(F)CC1)c1ncc(-c2ccc(-c3ccc(-c4cnc([C@@H](NC(=O)C(C)(C)C)C(C)C)[nH]4)cc3)cc2)[nH]1 [Compound Y-52],>100
5,C#CCOC(=O)N[C@H](c1ncc(-c2ccc(-c3ccc(-c4cnc([C@@H](NC(=O)OCC#C)C(C)C)[nH]4)cc3)cc2)[nH]1)C(C)C [Compound S-212],>10
6,CC(C)[C@H](NC(=O)C(=O)C1(CF)CCC(F)(F)CC1)c1ncc(-c2ccc(-c3ccc(-c4cnc([C@@H](NC(=O)C(=O)C5(CF)CCC(F)(F)CC5)C(C)C)[nH]4)cc3)cc2)[nH]1 [Compound P-127],>100
7,COC(=O)N[C@H](CC(C)C)C(=O)N[C@H](c1ncc(-c2ccc(-c3ccc(-c4cnc([C@@H](NC(=O)[C@@H](CC(C)C)NC(=O)OC)C(C)C)[nH]4)cc3)cc2)[nH]1)C(C)C [Compound P-105],>100
8,COC(=O)N[C@H](Cc1ccccc1)C(=O)N[C@H](c1ncc(-c2ccc(-c3ccc(-c4cnc([C@@H](NC(=O)[C@@H](Cc5ccccc5)NC(=O)OC)C(C)C)[nH]4)cc3)cc2)[nH]1)C(C)C [Compound P-106],>100
9,"CC(C)(C)[C@H](NC(=O)C1(CO)CCCO1)c1nc(-c2ccc(-c3ccc(-c4c[nH]c([C@@H](NC(=O)C5(CO)CCCO5)C(C)(C)C)n4)cc3)cc2)c[nH]1 (single isomer, unassigned) [Compound Y-111]",>100
10,CC(C)(C)[C@H](NC(=O)c1ccccc1F)c1nc(-c2ccc(-c3ccc(-c4c[nH]c([C@@H](NC(=O)c5ccccc5F)C(C)(C)C)n4)c(F)c3)cc2)c[nH]1.O=C(O)C(F)(F)F [Compound N-95],>100
11,CC(C)[C@H](NC(=O)C(C)(C)C(F)(F)F)c1ncc(-c2ccc(-c3ccc(-c4cnc([C@@H](NC(=O)C(C)(C)C(F)(F)F)C(C)C)[nH]4)cc3)cc2)[nH]1 [Compound P-87],>100
12,"CC(C)(C)[C@H](NC(=O)C1(C(O)c2ccccc2)CC1)c1nc(-c2ccc(-c3ccc(-c4c[nH]c([C@@H](NC(=O)C5(C(O)c6ccccc6)CC5)C(C)(C)C)n4)cc3)cc2)c[nH]1 (single isomer, unassigned) [Compound N-126A]",>100
13,COc1ncccc1C(=O)N[C@H](c1ncc(-c2ccc(-c3ccc(-c4cnc([C@@H](NC(=O)c5cccnc5OC)C(C)C)[nH]4)cc3)cc2)[nH]1)C(C)C [Compound S-52],>100
14,CC(C)(C)[C@H](NC(=O)C1CCC(F)(F)CC1)c1ncc(C#Cc2ccc(C#Cc3cnc([C@@H](NC(=O)C4CCC(F)(F)CC4)C(C)(C)C)[nH]3)cc2)[nH]1 [Compound B60],>100
15,CC(C)N(CC(F)(F)F)C(=O)C(=O)N1CCC(C)(C)C1c1nc(-c2ccc(-c3ccc(-c4c[nH]c(C5N(C(=O)C(=O)N(CC(F)(F)F)C(C)C)CCC5(C)C)n4)cc3)cc2)c[nH]1 (stereo not shown) [Compound W-236],>100
16,"CC(C)(C(=O)N[C@H](c1nc(-c2ccc(-c3ccc(-c4c[nH]c([C@@H](NC(=O)C(C)(C)C(O)c5ccccc5)C(C)(C)C)n4)cc3)cc2)c[nH]1)C(C)(C)C)C(O)c1ccccc1 (single isomer, unassigned) [Compound N-127C]",>100
